The values below come from ChEMBL document CHEMBL5678796, “A highly potent and selective farnesyltransferase inhibitor ABT-100 in preclinical studies” (Anticancer Drugs, 2005).

Assay [1] in a line: Inhibition of FTase in H-Ras transformed mouse NIH3T3 cells using Ras as substrate assessed as inhibition of substrate prenylation in presence of 10% bovine serum by immunoblot analysis. The class given is cell-based. A general note: A western blot detects proteins with antibodies after separation by electrophoresis.
Assay [2] can be described thus: Inhibition of FTase (unknown origin). More on the design: species or system Homo sapiens.
Assay [3] concerns HCT-116. As to the kind of experiment: Antitumor activity against human HCT-116 cells xenografted in nu/nu CD1 mouse assessed as reduction in tumor volume by measuring test to control ratio at 30 mg/kg, ip preinoculated with cells for 5 days followed by once every 3 days compound administration for 4 times and measured on day 22. The conditions noted are these: time 22 day. Type of assay: functional. On the technique in general: Xenograft models place foreign cells or tissue in a host animal.

In assay [4] the test system is HCT-116. As to the kind of experiment: Antitumor activity against human HCT-116 cells xenografted in nu/nu CD1 mouse assessed as increase in life span at 30 mg/kg, ip preinoculated with cells for 5 days followed by once every 3 days compound administration for 4 times and measured on day 22 relative to vehicle in time to 1 cm3 tumor. Type of assay: functional. The conditions noted are these: HCT-116, 528 h, time 22 day.

Assay [5] relates to HCT-116. Description: Antitumor activity against human HCT-116 cells xenografted in nu/nu CD1 mouse assessed as tumor volume at 30 mg/kg, ip preinoculated with cells for 5 days followed by once every 3 days compound administration for 4 times and measured on day 22 (reference value: 1861 +/- 410 mm^3). Type of assay: functional. The conditions noted are these: time 22 day.
The subject of assay [6] is HCT-116. As to the kind of experiment: Antitumor activity against human HCT-116 cells xenografted in nu/nu CD1 mouse assessed as increase in life span at 50 mg/kg, ip preinoculated with cells for 14 days followed by once every 4 days compound administration for 4 times and measured on day 40 relative to vehicle in time to 1 cm^3 tumor. The class given is functional. The conditions noted are these: HCT-116, 960 h, time 40 day.

Assay [7] in a line: Inhibition of FTase in human HCT-116 cells expressing low level of P-gp1 using Ras as substrate assessed as inhibition of substrate post-translation processing in presence of 20% human serum by immunoblot analysis. The class given is cell-based.
Assay [8] in a line: Inhibition of FTase in human HCT-15 cells expressing high level of P-gp1 using Ras as substrate assessed as inhibition of substrate post-translation processing in presence of 10% FBS by immunoblot analysis. Type of assay: cell-based.
Assay [9] in a line: Inhibition of FTase in human DLD-1 cells expressing moderate level of P-gp1 using Ras as substrate assessed as inhibition of substrate post-translation processing in presence of 10% FBS by immunoblot analysis. The class given is cell-based.
Assay [10] in a line: Ratio of EC50 for inhibition of FTase in human DLD-1 cells expressing moderate level of P-gp1 using Ras as substrate assessed as inhibition of substrate post-translation processing in presence of 20% human serum to EC50 for inhibition of FTase in human DLD-1 cells expressing moderate level of P-gp1 using Ras as substrate assessed as inhibition of substrate post-translation processing in presence …. The conditions noted are these: condition cancer.

Assay [11] can be described thus: Inhibition of FTase in human HCT-116 cells expressing low level of P-gp1 using Ras as substrate assessed as inhibition of substrate post-translation processing in presence of 10% FBS by immunoblot analysis. The class given is cell-based.
The test system of assay [12] is HCT-116. Description: Inhibition of anchorage-independent growth in human HCT-116 cells assessed as inhibition of colony formation in presence of 10% FBS. Type of assay: functional, cell-based.
Assay [13] relates to NIH3T3. Description: Inhibition of anchorage-independent growth in H-Ras transformed mouse NIH3T3 cells assessed as inhibition of colony formation in presence of 10% bovine serum. The class given is functional, cell-based.
Assay [14] can be described thus: Ratio of EC50 for inhibition of FTase in human HCT-15 cells expressing high level of P-gp1 using Ras as substrate assessed as inhibition of substrate post-translation processing in presence of 20% human serum to EC50 for inhibition of FTase in human HCT-15 cells expressing high level of P-gp1 using Ras as substrate assessed as inhibition of substrate post-translation processing in presence of 10% …. The settings on record: condition cancer.

Assay [15] in a line: Inhibition of GGTase in H-Ras transformed mouse NIH3T3 cells using Rap 1A as substrate assessed as inhibition of substrate prenylation in presence of 10% bovine serum by immunoblot analysis. Type of assay: cell-based.
Assay [16] in a line: Inhibition of recombinant human FTase incubated for 30 mins in presence of [3H]FPP by SPA based Topcount scintillation plate reader analysis.
A short description of assay [17]: Ratio of EC50 for inhibition of FTase in human HCT-116 cells expressing low level of P-gp1 using Ras as substrate assessed as inhibition of substrate post-translation processing in presence of 20% human serum to EC50 for inhibition of FTase in human HCT-116 cells expressing low level of P-gp1 using Ras as substrate assessed as inhibition of substrate post-translation processing in presence of 10% …. The conditions noted are these: condition cancer.

Assay [18] in a line: Inhibition of FTase in human HCT-15 cells expressing high level of P-gp1 using Ras as substrate assessed as inhibition of substrate post-translation processing in presence of 20% human serum by immunoblot analysis. The class given is cell-based.
Assay [19] concerns NIH3T3. As to the kind of experiment: Inhibition of anchorage-independent growth in H-Ras transformed mouse NIH3T3 cells assessed as inhibition of colony formation incubated for 14 days in presence of 10% bovine serum by imaging based soft agar colony formation assay. The class given is functional, cell-based. The conditions noted are these: NIH3T3, 336 h.
A short description of assay [20]: Inhibition of recombinant bovine FTase incubated for 30 mins in presence of [3H]FPP by SPA based Topcount scintillation plate reader analysis. More on the design: species or system Bos taurus.
The test system of assay [21] is HCT-116. As to the kind of experiment: Inhibition of anchorage-independent growth in human HCT-116 cells assessed as inhibition of colony formation incubated for 14 days in presence of 10% FBS by imaging based soft agar colony formation assay. The class given is functional, cell-based. The conditions noted are these: HCT-116, 336 h.
A short description of assay [22]: Inhibition of FTase in human DLD-1 cells expressing moderate level of P-gp1 using Ras as substrate assessed as inhibition of substrate post-translation processing in presence of 10% human serum by immunoblot analysis. Type of assay: cell-based.
A short description of assay [23]: Inhibition of recombinant bovine GGTase I incubated for 30 min sin presence of [3H]FPP by SPA based Topcount scintillation plate reader analysis. Also on record: species or system Bos taurus.
For assay [24], the system named is HCT-116. Description: Antitumor activity against human HCT-116 cells xenografted in nu/nu CD1 mouse assessed as tumor volume at 100 mg/kg, sc preinoculated with cells for 5 days followed by twice daily compound administration for 21 days and measured on day 22 (reference value: 1436 +/- 263 mm^3). Type of assay: functional. The conditions noted are these: time 22 day.

Assay [25] concerns HCT-116. As to the kind of experiment: Antitumor activity against human HCT-116 cells xenografted in nu/nu CD1 mouse assessed as increase in life span at 100 mg/kg, sc preinoculated with cells for 5 days followed by twice daily compound administration for 21 days and measured on day 22 relative to vehicle in time to 1 cm3 tumor. Type of assay: functional. The conditions noted are these: HCT-116, 528 h, time 22 day.

Assay [26] has as its system HCT-116. Description: Antitumor activity against human HCT-116 cells xenografted in nu/nu CD1 mouse assessed as reduction in tumor volume by measuring test to control ratio at 100 mg/kg, sc preinoculated with cells for 5 days followed by twice daily compound administration for 21 days and measured on day 22. Type of assay: functional. The conditions noted are these: time 22 day.

Structures are written as SMILES. A value given as a limit tells only on which side of the number the result lay.

The term EC50 denotes the concentration needed to bring the measured effect to its halfway point. Take `Cn1cncc1C(O)(COc1ccc(C#N)cc1-c1ccc(OC(F)(F)F)cc1)c1ccc(C#N)cc1` (stereo not drawn): the EC50 in assay [1] came to 2 nM; in [2] it was 0.6 nM.

By T/C is commonly meant the result in the treated group divided by that in the control group, in per cent. By ILS is commonly meant the gain in survival time of treated over control animals, in per cent. As to `Nc1ccn([C@@H]2O[C@H](CO)[C@@H](O)C2(F)F)c(=O)n1` [GEMCITABINE], the T/C in the assay with HCT-116 [3] was found to be 22%. Besides, the ILS at 30 mg/kg with HCT-116 [4] was determined as 112%. The Activity in the assay with HCT-116 [5] came to 359 mm3.

As to `CCc1c2c(nc3ccc(OC(=O)N4CCC(N5CCCCC5)CC4)cc13)-c1cc3c(c(=O)n1C2)COC(=O)[C@]3(O)CC` [IRINOTECAN], the ILS at 50 mg/kg with HCT-116 [6] was found to be 200%.

For orientation: IC50 means the midpoint of a concentration-inhibition curve. For `NC(=O)N1CCC(CC(=O)N2CCC([C@H]3c4ncc(Br)cc4CCc4cc(Cl)cc(Br)c43)CC2)CC1` [LONAFARNIB], the EC50 amounted to 49 nM in assay [7]; 37 nM in assay [8]; 12 nM in assay [9]; 16 nM in assay [11]; 74 nM in the assay with HCT-116 [12]; 160 nM in assay [1]. Further, the EC50 in the assay on NIH3T3 [13] was 50 nM; in assay [15], over 30 µM; in assay [18], 210 nM; in the assay on NIH3T3 [19], 56 nM; with HCT-116 [21], 94 nM; in [22], 23 nM. Moreover, the “Ratio EC50” value in assay [10], in assay [14] and in [17] was 1.9 throughout. Moreover, the figures for the IC50 in [16], in [20] and in assay [23] were 4.9 nM, 7.8 nM and over 10000 nM, respectively.

As to `Cn1cncc1[C@@](N)(c1ccc(Cl)cc1)c1ccc2c(c1)c(-c1cccc(Cl)c1)cc(=O)n2C` [TIPIFARNIB], the concentration giving a half-maximal response (EC50) in assay [7] was 6.7 nM; in assay [8] it was 0.55 nM; in [9] it was 0.69 nM; in assay [11], 0.98 nM; in [1], 2.3 nM; in assay [15], over 30 µM. In addition, the EC50 in assay [18] worked out at 4.9 nM; in the assay with NIH3T3 [19] it was 3.7 nM; with HCT-116 [21], 24 nM; in assay [22] it was 3.1 nM. Also, in the assay on HCT-116 [24], the Activity was 820 mm3. For the same compound, the “Ratio EC50” value in assay [10], in assay [14] and in assay [17] was 4.4 each time. Besides, the IC50 is 0.45 nM in assay [16], 57 nM in assay [20] and 1040 nM in assay [23]. The ILS at 100 mg/kg with HCT-116 [25] turned out to be 39%. Moreover, the T/C with HCT-116 [26] came to 56%.
